Experimental findings from US11578055B2, “Triazacyclododecansulfonamide (“TCD”)-based protein secretion inhibitors” (KEZAR LIFE SCIENCES, priority 2018, dated 2023) are described below.

pEC50, pIC50: −log10 of the molar value.

For orientation: pEC50 means −log10 of the EC50, conventionally taken in molar units.

Data set [1] relates to full length TNFα (amino acids 1-233) fused to Gaussia Luciferase. Nature of the data set: Dox Induced TNFα-FL-Gluc Assay. The settings on record: 24 hr, 293FRT/TO; read-out: 24 hr Dox Inducible TNFaFLGluc 293FRT/TO: Mean IC50. Format: cell-based. Summed up:
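Stable Flp-In 293 T-REx line expressing doxycycline-inducible full-length TNFα fused to Gaussia luciferase; cells plated the day before, then treated with compound dilutions in doxycycline-containing medium at 37° C, 5% CO2. Unspecified stereocentres mean stereoisomer mixtures were tested.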

The nature of data set [2]: In Vitro Microsome Stability Assay (rat). Type of data set: in vitro ADME. The note with it: rat, 30 min, NADPH. The procedure, abridged: (§1)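 Species liver microsomes in potassium phosphate buffer were preincubated at 37 °C for 3–5 min with test compound (added from 0.25 mM DMSO stock), then started with NADPH. Samples at 0 and 30 min were quenched with acetonitrile containing internal standard and analysed by LC-MS/MS; % remaining at 30 min used analyte/IS AUC ratios relative to t=0.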

The test system of data set [3] is PD1 signal sequence plus 10 amino acids fused to Gaussia Luciferase (PD1-ss+10aa/Gaussia Luciferase). Nature of the data set: Dox Induced PD1-ss-Gluc Assay. Type of data set: cell-based. The settings on record: 24 hr, 293FRT/TO; read-out: 24 hr Dox Inducible PD1ssGluc 293FRT/TO: Mean IC50. The procedure, abridged: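 Stable Flp-In 293 T-REx line expressing the fusion under tetracycline-inducible control, plated the day before assay. Compound dilutions added with doxycycline and incubated at 37 °C, 5% CO2; unspecified stereocentres mean data refer to stereoisomer mixtures.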

Data set [4] concerns multiple myeloma cell line NCl-H929. Nature of the data set: H929 Cell Viability Assay. Format: cell-based, human. The note with it: Homo sapiens, NCI-H929, 48 h, H929, read-out: 48 hr H929 Viability Celltiter-Glo: Mean EC50. Summed up:
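NCI-H929 myeloma cells in RPMI 1640 with 10% FBS were treated with compound dilutions for 48 h at 37 °C, and viability was then read by CellTiter-Glo luminescence. Compounds drawn without stereochemistry were tested as stereoisomer mixtures.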
Background: In ATP-based viability assays light output follows the ATP content of the culture.

Data set [5] deals with full length IL-2 (amino acids 1-153) fused to Gaussia Luciferase. Nature of the data set: Dox Induced IL2-FL-Gluc Assay. Type of data set: cell-based. The note with it: 24 hr, 293FRT/TO; read-out: 24 hr Dox Inducible IL2FLGluc 293FRT/TO: Mean IC50. Summed up:
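Flp-In 293 T-REx stable line expressing full-length IL-2 (aa 1-153) with C-terminal Gaussia luciferase fusion under doxycycline-inducible control. Cells plated the day before; compound dilutions added in DMSO/media containing doxycycline, incubated at 37° C, 5% CO2.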

Data set [6] can be described thus: In Vitro Microsome Stability Assay (human). Format: in vitro ADME. The settings on record: human, 30 min, NADPH. The procedure, abridged: as §1
Data set [7] has as its system multiple myeloma cell line U266B1. Nature of the data set: U266 Cell Viability Assay. Format: cell-based, human. The settings on record: Homo sapiens, U-266; 48 hr, U266; read-out: 48 hr U266 Viability Celltiter-Glo: Mean EC50. The procedure, abridged:
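U266B1 myeloma cells in RPMI 1640 with 10% FBS were treated with compound dilutions for 48 h at 37° C, 5% CO2. Viability was read as CellTiter-Glo luminescence. Data for structures drawn without stereochemistry refer to stereoisomer mixtures.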

The nature of data set [8]: In Vitro Microsome Stability Assay (mouse). Type of data set: in vitro ADME. The note with it: mouse, 30 min, NADPH. The procedure, abridged: as §1
Data set [9] has as its system full length PD1 (amino acids 1-288) fused to Firefly Luciferase. Nature of the data set: Dox Induced PD1-FL-Gluc Assay. Type of data set: cell-based. The note with it: 24 hr, 293FRT/TO; read-out: 24 hr Dox Inducible PD1FLFluc 293FRT/TO: Mean IC50. From the text: FIp-In 293 T-REx™ cells were transfected with pcDNA™5/FRT/TO plasmid inserted with cDNA encoding Firefly Luciferase fused to the 3′ end of cDNA encoding full length PD1 (amino acids 1-288). Transfected cells were selected for resistance to the selectable markers Hygromycin and Blasticidin to create a stable cell line that contained the PD1-FL/Firefly Luciferase cDNA insert whose expression was regulated under the T-REx™ system. The day before assay, cells were trypsinized and plated in 384-well tissue culture plates. The next day, compound dilutions in DMSO/media containing doxycycline were added to the wells and incubated at 37° C., 5% CO2.
For chemical structures that include one or more stereoisomers, but are illustrated without indicating stereochemistry, the assay data refers to a mixture of stereoisomers.

A short description of data set [10]: In Vitro Microsome Stability Assay (monkey). The note with it: monkey, 30 min, NADPH. Format: in vitro ADME. The procedure, abridged: as §1

For the compound `CN(C)c1ccc(S(=O)(=O)N2CCCN(CC3CCCCC3)CCCN(S(=O)(=O)N3CCC(c4ccccc4)CC3)C/C(=N/O)C2)cc1` [A75, 9-(cyclohexylmethyl)-1-((4-(dimethylamino)phenyl)sulfonyl)-5-((4-phenylpiperidin-1-yl)sulfonyl)-1,5,9-triazacyclododecan-3-one oxime], the pIC50 in data set [1] is 5.42; in data set [3], 6.98; in data set [5], 6.63; in [9] it was 6.59. Also, the “Liver Microsome Stability-% Left after 30 min w/ NADPH (%) Rat” value (from here on “Liver Microsome Stability-% Left … (%) Rat”) in data set [2] was 7.54%. For the same compound, the pEC50 in data set [4] is 5.52; in data set [7], < 4.60. For the same compound, in data set [6], the “Liver Microsome Stability-% Left after 30 min w/ NADPH (%) Human” value (from here on “Liver Microsome Stability-% Left … (%) Human”) was found to be 3.08%. Also, in [8], the “Liver Microsome Stability-% Left after 30 min w/ NADPH (%) Mouse” value (“Liver Microsome Stability-% Left … (%) Mouse” below) is reported as 2.75%. Moreover, the “Liver Microsome Stability-% Left after 30 min w/ NADPH (%) Monkey” value (shortened to “Liver Microsome Stability-% Left … (%) Monkey”) in [10] turned out to be 0.28%.
With `C[C@H]1CN(S(=O)(=O)c2ccc(N(C)C)cc2)CCCN(CC2CCCCC2)CCCN(S(=O)(=O)N2CCC(c3ccccc3)CC2)C1` [A77, 4-{[(3S)-9-(cyclohexylmethyl)-3-methyl-5-[(4-phenylpiperidin-1-yl)sulfonyl]-1,5,9-triazacyclododecan-1-yl]sulfonyl}-N,N-dimethylaniline], the pIC50 in data set [1] is 5.26; in data set [3], 7.02; in [5] it was 6.44; in data set [9] it was 6.47. Moreover, the “Liver Microsome Stability-% Left … (%) Rat” value in data set [2] came out at 32.5%. Also, the pEC50 was 5.40 in data set [4] and < 4.60 in [7]. Moreover, the “Liver Microsome Stability-% Left … (%) Human” value in data set [6] came out at 30.1%. Further, in data set [8], the “Liver Microsome Stability-% Left … (%) Mouse” value is 37.3%. Moreover, the “Liver Microsome Stability-% Left … (%) Monkey” value in [10] is recorded as 20.8%.
As to `C=C1CN(S(=O)(=O)c2ccc(N(C)C)cc2)CCCN(CC2CCCCC2)CCCN(S(=O)(=O)N2CC=C(c3ccc(Cl)cc3)CC2)C1` [A74, 4-[(5-{[4-(4-chlorophenyl)-1,2,3,6-tetrahydropyridin-1-yl]sulfonyl}-9-(cyclohexylmethyl)-3-methylidene-1,5,9-triazacyclododecan-1-yl)sulfonyl]-N,N-dimethylaniline], the pIC50 is < 4.60 in data set [1], 7.11 in [3], 6.61 in [5] and 6.59 in [9]. For the same compound, in data set [2], the “Liver Microsome Stability-% Left … (%) Rat” value stood at 55.7%. In addition, the pEC50 in data set [4] and in [7] was < 4.60 throughout. Besides, the “Liver Microsome Stability-% Left … (%) Human” value in data set [6] was determined as 56.3%. For the same compound, the “Liver Microsome Stability-% Left … (%) Mouse” value in [8] is 53.7%. In addition, the “Liver Microsome Stability-% Left … (%) Monkey” value in data set [10] is recorded as 60.6%.
Regarding `C[C@@H]1CN(S(=O)(=O)c2ccc(N(C)C)cc2)CCCN(CC2CCCCC2)CCCN(S(=O)(=O)N2CCC(c3ccccc3)CC2)C1` [A76, 4-{[(3 R)-9-(cyclohexylmethyl)-3-methyl-5-[(4-phenylpiperidin-1-yl)sulfonyl]-1,5,9-triazacyclododecan-1-yl]sulfonyl}-N,N-dimethylaniline], the pIC50 in data set [1], in data set [3], in data set [5] and in [9] was < 4.60 in each case. Moreover, the “Liver Microsome Stability-% Left … (%) Rat” value in [2] worked out at 33.9%. The pEC50 in data set [4] and in [7] was < 4.60 in each case. In addition, the “Liver Microsome Stability-% Left … (%) Human” value in data set [6] came out at 53.1%. Also, the “Liver Microsome Stability-% Left … (%) Mouse” value in [8] amounted to 28.6%. Also, the “Liver Microsome Stability-% Left … (%) Monkey” value in data set [10] is 35.7%.
